According to patent US12624017B2, “Salt form of isoquinolinone type compound as rock inhibitor and preparation method therefor” (GUANGZHOU OCUSUN OPHTHALMIC BIOTECHNOLOGY CO., LTD., priority 2020, dated 2026):

Experiments:
Format in all cases: in vivo, New Zealand white rabbits
[1] = Pharmacokinetic test in aqueous humor after eye drops; settings: eye drops 0.5 mg/eye
Text: The compound was a prodrug molecule containing an ester functional group, which can be hydrolyzed into an active drug molecule (parent drug) under the action of abundant ester hydrolase in the eye tissue when administered with eye drops. In this experiment, the production rate of the active pharmaceutical ingredients in vivo and the exposure amount of the active pharmaceutical ingredients were detected.
(§1) Male New Zealand white rabbits, aged 3 to 6 months, weighted 2.0 to 5.0 kg, purchased from Pizhou Oriental Breeding Co., Ltd.
The used solvent was 1.2% hydroxypropyl methylcellulose E5/20.5% poloxamer P407/1.6% poloxamer P188.
The dosage of eye drops was 0.5 mg/eye, administrated in both eyes. Aqueous humor samples were collected at 0.25 h, 0.5 h, 2 h, 4 h, 8 h, and 24 h after administration. All samples were quantitatively detected by liquid chromatography coupled with mass spectrometry-mass spectrometry in the aqueous humor of the experimental animals. The measured concentration values were calculated by WinNonlin non-compartment model according to the concentration-time data of aqueous humor, such as half-life, peak concentration, peak time, unit exposure amount of aqueous humor, etc.

[2] = test system: New Zealand rabbits with normal intraocular pressure; assay: Intraocular pressure reduction, normal intraocular pressure, Day 1 (Operation II); settings: for Average intraocular pressure in both eyes / Change in intraocular pressure: Day 1; for Change in intraocular pressure: vs negative controls
Text: An intraocular pressure reduction effect and potential ocular toxicity of the compound of formula (I) were inspected with rabbits with normal intraocular pressure by repeated administration of eye drops for 14 days.
Male New Zealand white rabbits, aged 97 to 127 days, weighted 2.6-3.5 kg, purchased from Pizhou Oriental Breeding Co., Ltd.
(§2) 42 male New Zealand white rabbits were randomly grouped into 7 groups according to body weights, 6 rabbits/group. Among the animals in Groups 1-7, the left eye was administrated dropwise with normal saline, and the right eye was administrated dropwise with a solvent/control/test article in an administration volume of 50 μL/eye respectively, once a day for 14 consecutive days, and the day of first administration was recorded as Day 1. The intraocular pressures of the animals were measured before administration on Day 1, as well as at 1 h, 2 h, 4 h, 6 h, 8 h and 10 h after administration on Day 1 (Table 10).

[3] = test system: New Zealand rabbits with normal intraocular pressure; assay: Eye irritation response detection with hand-held slit lamp, 14 days eye drops; settings: 14 consecutive days, 50 μl/eye/day
Procedure: as §2
Animals were subjected to eye irritation response detection and fluorescein sodium detection (scored according to scoring criteria) in both eyes with a hand-held slit lamp before the start of test (Day −2/Day −1), before daily administration (Day 1 to Day 14), and at 1 h, 2 h, 4 h, 24 h, 48 h, and 72 h after the last administration (Day 14).
Animals were subjected to eye irritation response detection in both eyes with a handheld slit lamp on Day −2 to Day −1 before the start of test, before first administration every day (Day 1 to Day 14), and at 1 h, 2 h, 4 h, 24 h, 48 h, and 72 h after the last administration. The scoring criteria were as follows: […]

[4] = Toxicokinetic test: active compound in plasma after 14 days of eye drops; settings: for Concentration of active compound in plasma: 8.0 mg/ml eye drops, after 14 days of consecutive administration
Procedure: The rate of production of active pharmaceutical ingredients in plasma and exposure amount of the active pharmaceutical ingredients were detected after 14 days.
as §1
After 14 days of consecutive administration, blood samples were collected at 0 hours (before administration) and at 0.5, 1, 2, 4, 8 and 24 hours after administration in the group of compound of formula (I) (8.0 mg/ml) at 14-15 days. Approximately 0.8 mL of whole blood was collected from the ear artery or the hindlimb saphenous vein (or other suitable site) of animal subjected to the toxicokinetic test and placed in a labeled blood collection tube with dipotassium EDTA (K2EDTA) as an anticoagulant. Plasma was obtained by centrifugation at 3000 rpm and 2° C. to 8° C. for 10 min within 60 minutes after blood collection. All samples were quantitatively detected for the content of the administrated compound in the plasma of the experimental animal by a liquid chromatography-mass spectrometry coupling technology.

[5] = 4 mg/mL in right eye, 1 h after administration
[6] = 4 mg/mL in right eye, 2 h after administration
[7] = 4 mg/mL in right eye, 4 h after administration
[8] = 4 mg/mL in right eye, 6 h after administration
[9] = 4 mg/mL in right eye, 8 h after administration
[10] = 4 mg/mL in right eye, 10 h after administration
[11] = 4 mg/mL in right eye, before administration

Cc1ccc(C(=O)OCn2cc(C)c3c(S(=O)(=O)N4CC[C@H](N)C4)cccc3c2=O)c(C)c1 [Compound of formula (I)]
Exposure amount of the active drug (conclusion) [1]: significantly increased | Average intraocular pressure in both eyes ([2]; 0.25 mg/mL in right eye, 1 h after administration): 6.22 mmHg | Average intraocular pressure in both eyes ([2]; 0.25 mg/mL in right eye, 2 h after administration): 6.17 mmHg | Average intraocular pressure in both eyes ([2]; 0.25 mg/mL in right eye, 4 h after administration): 6.67 mmHg | Average intraocular pressure in both eyes ([2]; 0.25 mg/mL in right eye, 6 h after administration): 8.06 mmHg | Average intraocular pressure in both eyes ([2]; 0.25 mg/mL in right eye, 8 h after administration): 9.72 mmHg | Average intraocular pressure in both eyes ([2]; 0.25 mg/mL in right eye, 10 h after administration): 10.95 mmHg | Average intraocular pressure in both eyes ([2]; 0.25 mg/mL in right eye, before administration): 9.84 mmHg | Average intraocular pressure in both eyes ([2]; 0.5 mg/mL in right eye, 1 h after administration): 5.39 mmHg | Average intraocular pressure in both eyes ([2]; 0.5 mg/mL in right eye, 2 h after administration): 5.50 mmHg | Average intraocular pressure in both eyes ([2]; 0.5 mg/mL in right eye, 4 h after administration): 6.95 mmHg | Average intraocular pressure in both eyes ([2]; 0.5 mg/mL in right eye, 6 h after administration): 8.94 mmHg | Average intraocular pressure in both eyes ([2]; 0.5 mg/mL in right eye, 8 h after administration): 9.89 mmHg | Average intraocular pressure in both eyes ([2]; 0.5 mg/mL in right eye, 10 h after administration): 11.56 mmHg | Average intraocular pressure in both eyes ([2]; 0.5 mg/mL in right eye, before administration): 9.22 mmHg | Average intraocular pressure in both eyes ([2]; 1.0 mg/mL in right eye, 1 h after administration): 5.56 mmHg | Average intraocular pressure in both eyes ([2]; 1.0 mg/mL in right eye, 2 h after administration): 5.39 mmHg | Average intraocular pressure in both eyes ([2]; 1.0 mg/mL in right eye, 4 h after administration): 6.67 mmHg | Average intraocular pressure in both eyes ([2]; 1.0 mg/mL in right eye, 6 h after administration): 7.33 mmHg | Average intraocular pressure in both eyes ([2]; 1.0 mg/mL in right eye, 8 h after administration): 10.50 mmHg | Average intraocular pressure in both eyes ([2]; 1.0 mg/mL in right eye, 10 h after administration): 10.89 mmHg | Average intraocular pressure in both eyes ([2]; 1.0 mg/mL in right eye, before administration): 9.17 mmHg | Average intraocular pressure in both eyes ([2]; 2.0 mg/mL in right eye, 1 h after administration): 8.11 mmHg | Average intraocular pressure in both eyes ([2]; 2.0 mg/mL in right eye, 2 h after administration): 5.84 mmHg | Average intraocular pressure in both eyes ([2]; 2.0 mg/mL in right eye, 4 h after administration): 6.06 mmHg | Average intraocular pressure in both eyes ([2]; 2.0 mg/mL in right eye, 6 h after administration): 7.11 mmHg | Average intraocular pressure in both eyes ([2]; 2.0 mg/mL in right eye, 8 h after administration): 9.00 mmHg | Average intraocular pressure in both eyes ([2]; 2.0 mg/mL in right eye, 10 h after administration): 10.05 mmHg | Average intraocular pressure in both eyes ([2]; 2.0 mg/mL in right eye, before administration): 9.72 mmHg | Average intraocular pressure in both eyes ([2]; 4.0 mg/mL in right eye, 1 h after administration): 6.61 mmHg | Average intraocular pressure in both eyes ([2]; 4.0 mg/mL in right eye, 2 h after administration): 5.84 mmHg | Average intraocular pressure in both eyes ([2]; 4.0 mg/mL in right eye, 4 h after administration): 5.72 mmHg | Average intraocular pressure in both eyes ([2]; 4.0 mg/mL in right eye, 6 h after administration): 6.61 mmHg | Average intraocular pressure in both eyes ([2]; 4.0 mg/mL in right eye, 8 h after administration): 8.39 mmHg | Average intraocular pressure in both eyes ([2]; 4.0 mg/mL in right eye, 10 h after administration): 10.67 mmHg | Average intraocular pressure in both eyes ([2]; 4.0 mg/mL in right eye, before administration): 10.00 mmHg | Efficacy of single administration (conclusion) ([2]; all tested doses (0.25 to 4.0 mg/mL), compared with K-115): better efficacy | Eye irritation (conclusion) ([3]; 0.25 to 4 mg/mL): no irritation | Concentration of active compound in plasma ([4]; Group 1, 0.00 h (before administration)): BQL | Concentration of active compound in plasma ([4]; Group 1, 8.00 h): BQL | Concentration of active compound in plasma ([4]; Group 1, 8.00 h, listed as compound of formula (I)): below the detection limit | Concentration of active compound in plasma ([4]; Group 1, 24.0 h): BQL | Concentration of active compound in plasma ([4]; Group 2, 0.00 h (before administration)): BQL | Concentration of active compound in plasma ([4]; Group 2, 8.00 h): BQL | Concentration of active compound in plasma ([4]; Group 2, 24.0 h): BQL | System safety (conclusion) ([4]; high dose of 8 mg/mL, from plasma metabolite concentration): high system safety

C[C@H]1CNCCCN1S(=O)(=O)c1cccc2cncc(F)c12 [K-115, reference compound]
Average intraocular pressure in both eyes [2, 5]: 5.50 mmHg | Change in intraocular pressure [2, 5]: −3.39 mmHg | Average intraocular pressure in both eyes [2, 6]: 7.06 mmHg | Change in intraocular pressure [2, 6]: −2.50 mmHg | Average intraocular pressure in both eyes [2, 7]: 9.00 mmHg | Change in intraocular pressure [2, 7]: −0.89 mmHg | Average intraocular pressure in both eyes [2, 8]: 9.17 mmHg | Change in intraocular pressure [2, 8]: −1.61 mmHg | Average intraocular pressure in both eyes [2, 9]: 10.61 mmHg | Change in intraocular pressure [2, 9]: 0.23 mmHg | Average intraocular pressure in both eyes [2, 10]: 12.33 mmHg | Change in intraocular pressure [2, 10]: 0.17 mmHg | Average intraocular pressure in both eyes [2, 11]: 10.17 mmHg | Change in intraocular pressure [2, 11]: 0.83 mmHg | Eye irritation (conclusion) ([3]; 4 mg/mL): no irritation
